The supplement of paper PMC10307832

What was measured:
Assay in all cases: relative viability (nuclei count vs DMSO), 5 days (fraction); higher = more cells survive
VE-821 + Tozasertib = compound: CS(=O)(=O)c1ccc(-c2cnc(N)c(C(=O)Nc3ccccc3)n2)cc1 [VE-821] + Cc1cc(Nc2cc(N3CCN(C)CC3)nc(Sc3ccc(NC(=O)C4CC4)cc3)n2)n[nH]1 [Tozasertib] (partner 0.1 µM)
In short: (§1)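 Medians of duplicate plates are given as relative viability. That measure is the nuclei count in treated wells divided by the count in vehicle wells. Counts were taken on 4× images of lung cancer cell lines in 1536-well plates, 5 days after pin-tool dosing the day after seeding with one drug alone or a fixed anchor-drug dose plus five library-drug doses (not always all listed) in √10 steps.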

Vismodegib + Luminespib = compound: CS(=O)(=O)c1ccc(C(=O)Nc2ccc(Cl)c(-c3ccccn3)c2)c(Cl)c1 [Vismodegib] + CCNC(=O)c1noc(-c2cc(C(C)C)c(O)cc2O)c1-c1ccc(CN2CCOCC2)cc1 [Luminespib] (partner 0.01 µM)
In short: as §1

Vismodegib + Tozasertib = compound: CS(=O)(=O)c1ccc(C(=O)Nc2ccc(Cl)c(-c3ccccn3)c2)c(Cl)c1 [Vismodegib] + Cc1cc(Nc2cc(N3CCN(C)CC3)nc(Sc3ccc(NC(=O)C4CC4)cc3)n2)n[nH]1 [Tozasertib] (partner 0.1 µM)
In short: as §1

Ruxolitinib + AZD7762 = compound: N#CC[C@H](C1CCCC1)n1cc(-c2ncnc3[nH]ccc23)cn1 [Ruxolitinib] + NC(=O)Nc1cc(-c2cccc(F)c2)sc1C(=O)N[C@H]1CCCNC1 [AZD7762] (partner 0.2 µM)
In short: as §1

| Cell Line | relative viability (VE-821 + Tozasertib; first compound 0.08 µM) | relative viability (VE-821 + Tozasertib; first compound 0.253 µM) | relative viability (VE-821 + Tozasertib; first compound 0.8 µM) | relative viability (VE-821 + Tozasertib; first compound 2.53 µM) | relative viability (VE-821 + Tozasertib; first compound 8 µM) | relative viability (Vismodegib + Luminespib; first compound 0.08 µM) | relative viability (Vismodegib + Luminespib; first compound 0.253 µM) | relative viability (Vismodegib + Luminespib; first compound 0.8 µM) | relative viability (Vismodegib + Luminespib; first compound 2.53 µM) | relative viability (Vismodegib + Luminespib; first compound 8 µM) | relative viability (Vismodegib + Tozasertib; first compound 0.08 µM) | relative viability (Vismodegib + Tozasertib; first compound 0.253 µM) | relative viability (Vismodegib + Tozasertib; first compound 0.8 µM) | relative viability (Vismodegib + Tozasertib; first compound 2.53 µM) | relative viability (Vismodegib + Tozasertib; first compound 8 µM) | relative viability (Ruxolitinib + AZD7762; first compound 0.08 µM) | relative viability (Ruxolitinib + AZD7762; first compound 0.253 µM) | relative viability (Ruxolitinib + AZD7762; first compound 0.8 µM) | relative viability (Ruxolitinib + AZD7762; first compound 2.53 µM) | relative viability (Ruxolitinib + AZD7762; first compound 8 µM) |
| --- | --- | --- | --- | --- | --- | --- | --- | --- | --- | --- | --- | --- | --- | --- | --- | --- | --- | --- | --- | --- |
| SK-MES-1 | 0.968 | 0.818 | 0.828 | 0.561 | 0.325 | 0.775 | 0.765 | 0.849 | 0.853 | 0.922 | 0.881 | 0.871 | 0.974 | 0.841 | 0.827 | – | – | – | – | – |
| NCI-H522 | 0.633 | 0.63 | 0.537 | 0.453 | 0.575 | 1.1 | 1.1 | 0.939 | 1.34 | 1.09 | 0.534 | 0.508 | 0.529 | 0.548 | 0.577 | 0.948 | 0.716 | 1.01 | 0.794 | 0.803 |
| NCI-H1651 | 0.779 | 0.616 | 0.345 | 0.517 | 0.422 | 0.816 | 0.819 | 0.86 | 0.866 | 0.791 | 0.617 | 0.704 | 0.643 | 0.604 | 0.704 | 0.512 | 0.449 | 0.533 | 0.545 | 0.689 |
| NCI-H661 | 0.351 | 0.354 | 0.336 | 0.343 | 0.336 | 0.945 | 0.909 | 0.934 | 0.876 | 0.889 | 0.352 | 0.339 | 0.353 | 0.359 | 0.365 | – | – | – | – | – |
| NCI-H1944 | 0.285 | 0.253 | 0.219 | 0.231 | 0.193 | 0.729 | 0.716 | 0.782 | 0.758 | 0.83 | 0.261 | 0.285 | 0.26 | 0.269 | 0.232 | 0.576 | 0.612 | 0.642 | 0.469 | 0.68 |
| NCI-H2228 | 0.312 | 0.2 | 0.212 | 0.256 | 0.156 | 0.225 | 0.183 | 0.182 | 0.127 | 0.18 | 0.218 | 0.277 | 0.23 | 0.217 | 0.265 | – | – | – | – | – |
| NCI-H1792 | – | – | – | – | – | 0.344 | 0.517 | 0.342 | 0.467 | 0.414 | – | – | – | – | – | 0.557 | 0.636 | 0.63 | 0.475 | 0.391 |
| HCC-44 | 1.08 | 0.865 | 0.841 | 0.907 | 0.708 | 1 | 0.966 | 1 | 0.979 | 1.05 | 0.951 | 0.836 | 0.877 | 0.832 | 0.993 | 0.947 | 1.05 | 1 | 0.994 | 1.05 |
| NCI-H358 | 0.12 | 0.105 | 0.0999 | 0.0895 | 0.0895 | 0.325 | 0.258 | 0.418 | 0.33 | 0.204 | 0.0964 | 0.104 | 0.104 | 0.103 | 0.0976 | 0.5 | 0.653 | 0.504 | 0.404 | 0.445 |
| NCI-H596 | 0.916 | 0.82 | 0.798 | 0.954 | 0.774 | 1.04 | 0.96 | 1.15 | 1.05 | 1.02 | 1 | 0.814 | 0.932 | 0.838 | 0.769 | 1.35 | 1.04 | 1.21 | 1.09 | 1.27 |
| 201T | 1.04 | 0.988 | 0.896 | 0.929 | 0.636 | 1.02 | 1 | 1.07 | 1.11 | 0.968 | 0.914 | 0.919 | 0.987 | 0.946 | 0.966 | 0.583 | 0.622 | 0.595 | 0.649 | 0.763 |
| NCI-H2023 | 0.401 | 0.297 | 0.129 | 0.107 | 0.0977 | 0.634 | 0.789 | 0.891 | 0.68 | 0.794 | 0.356 | 0.341 | 0.348 | 0.315 | 0.227 | – | – | – | – | – |
| NCI-H1703 | – | – | – | – | – | – | – | – | – | – | – | – | – | – | – | 0.127 | 0.126 | 0.143 | – | 0.115 |
| SW 1573 | 0.164 | 0.174 | 0.181 | 0.216 | 0.197 | – | 0.216 | 0.174 | 0.215 | 0.207 | 0.185 | 0.206 | 0.16 | 0.13 | 0.19 | – | – | – | – | – |
| NCI-H1563 | – | – | – | – | – | 0.468 | 0.48 | 0.529 | 0.545 | 0.571 | – | – | – | – | – | – | – | – | – | – |
| NCI-H1623 | 0.481 | 0.404 | 0.398 | 0.463 | 0.364 | 0.483 | 0.439 | 0.611 | 0.457 | 0.6 | 0.403 | 0.42 | 0.422 | 0.418 | 0.411 | – | – | – | – | – |
| COR-L 105 | 0.37 | 0.373 | 0.374 | 0.284 | 0.333 | 0.657 | 0.785 | 0.92 | 0.973 | 0.773 | 0.357 | 0.335 | 0.25 | 0.374 | 0.391 | – | – | – | – | – |
| NCI-H520 | 0.493 | 0.457 | – | 0.435 | 0.858 | 0.24 | 0.225 | 0.198 | 0.207 | 0.212 | 0.392 | 0.452 | 0.481 | 0.385 | 0.433 | – | – | – | – | – |
| NCI-H1648 | 0.415 | 0.608 | 0.518 | 0.61 | 0.345 | – | – | – | – | – | 0.395 | 0.461 | 0.348 | 0.427 | 0.562 | 0.739 | 0.817 | 0.658 | 0.914 | 1.15 |
| SK-LU-1 | 0.383 | 0.286 | 0.274 | 0.208 | 0.193 | 0.206 | 0.201 | 0.22 | 0.216 | 0.223 | 0.269 | 0.348 | 0.295 | 0.347 | 0.361 | – | – | – | – | – |
| NCI-H2009 | 0.871 | 0.74 | 0.633 | 0.737 | 0.734 | 0.873 | 0.968 | 1.03 | 1.01 | 1.04 | 0.727 | 0.674 | 0.834 | 0.817 | 0.733 | – | – | – | – | – |
